Experimental data reported in patent US9359308B2, “Pyrazine kinase inhibitors” (Portola Pharmaceuticals, Inc., priority 2011, dated 2016).

Target: T1, full length active recombinant SYK enzyme (Homo sapiens, UniProt P43405)
T1 construct: full length active recombinant SYK enzyme (Millipore, Calif.); purchased Millipore
Experiment: Inhibition of Syk tyrosine phosphorylation activity (LANCE TR-FRET kinase assay)
Format: biochemical
Settings: activity in the Syk assays, class symbols
In short: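 IC50 was derived by non-linear regression of TR-FRET signal (Eu-W1024-PY100 donor, streptavidin-APC acceptor) read 1 h after EDTA quench. The kinase step ran 1 h at room temperature with 1 nM full-length SYK, 550 nM biotinylated DEEDYESP substrate and 100 μM ATP in Tris pH 7.5/MgCl2/DTT at 3% final DMSO.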

Work on `CC(C)C[C@@H](Nc1cnc(C(N)=O)c(Nc2ccc(C(=O)N(C)C)cc2)n1)C(N)=O` [Example 281, (R)-5-(1-amino-4-methyl-1-oxopentan-2-ylamino)-3-(4-(dimethylcarbamoyl)phenylamino)pyrazine-2-carboxamide] yielded an IC50 of 0.01 to 0.1 µM.

Work on `CC(C)[C@@H](Nc1cnc(C(N)=O)c(Nc2ccc3ncccc3c2)n1)C(N)=O` [Example 67, (R)-5-(1-amino-3-methyl-1-oxobutan-2-ylamino)-3-(quinolin-6-ylamino)pyrazine-2-carboxamide] yielded an IC50 of 0.001 to 0.01 µM.

Molecule `CC(C)(C)[C@@H](Nc1cnc(C(N)=O)c(Nc2cnc3ccccc3c2)n1)C(N)=O` [Example 191, (R)-5-(1-amino-3,3-dimethyl-1-oxobutan-2-ylamino)-3-(quinolin-3-ylamino)pyrazine-2-carboxamide] has an IC50 of 0.001 to 0.01 µM.

`NC(=O)c1ncc(N[C@@H]2CCCC[C@@H]2N)nc1Nc1cccc(C(=O)N2CCC2)c1` [Example 307, 5-((1R,2S)-2-aminocyclohexylamino)-3-(3-(azetidine-1-carbonyl)phenylamino)pyrazine-2-carboxamide] was tested, and the IC50 was 0.01 to 0.1 µM.

`NC(=O)c1ncc(NC2(C(N)=O)CC2)nc1Nc1cnc2ccccc2c1` [Example 362, 5-(1-carbamoylcyclopropylamino)-3-(quinolin-3-ylamino)pyrazine-2-carboxamide] was tested, and the IC50 was 0.01 to 0.1 µM.

In the case of `NC(=O)c1ncc(N[C@@H]2CCCC[C@@H]2N)nc1Nc1ccc2nccn2c1` [Example 425, 5-(((1R,2S)-2-aminocyclohexyl)amino)-3-(imidazo[1,2-a]pyridin-6-ylamino)pyrazine-2-carboxamide], the IC50 is reported as 0.001 to 0.01 µM.

`COc1cc(Nc2nc(N[C@@H]3CCCC(F)(F)[C@@H]3N)cnc2C(N)=O)cc(OC)c1` [Example 168, 5-((1R,2R)-2-amino-3,3-difluorocyclohexylamino)-3-(3,5-dimethoxyphenylamino)pyrazine-2-carboxamide] gave an IC50 of 0.01 to 0.1 µM.

In the case of `CC[C@@H](Nc1cnc(C(N)=O)c(Nc2cnc3ncccc3c2)n1)C(N)=O` [Example 380, (R)-3-(1,8-naphthyridin-3-ylamino)-5-(1-amino-1-oxobutan-2-ylamino)pyrazine-2-carboxamide], the IC50 is reported as 0.001 to 0.01 µM.

For `NC(=O)c1ncc(N[C@H]2CC[C@@H](N)CC2)nc1Nc1cccc(-c2ncccn2)c1` [Example 184, 5-((1s,4s)-4-aminocyclohexylamino)-3-(3-(pyrimidin-2-yl)phenylamino)pyrazine-2-carboxamide], the IC50 was 0.001 to 0.01 µM.

In the case of `NC(=O)c1ncc(N[C@@H]2CCNC2)nc1Nc1cccc(-c2ncccn2)c1` [Example 114, (R)-3-((3-(pyrimidin-2-yl)phenyl)amino)-5-(pyrrolidin-3-ylamino)pyrazine-2-carboxamide], the IC50 is reported as 0.001 to 0.01 µM.

Work on `NC(=O)c1ncc(N[C@H]2CN[C@@H](CO)C2)nc1Nc1cnc2ccc(F)cc2c1` [Example 140, 3-((6-fluoroquinolin-3-yl)amino)-5-(((3R,5R)-5-(hydroxymethyl)pyrrolidin-3-yl)amino)pyrazine-2-carboxamide] yielded an IC50 of 0.001 to 0.01 µM.

Work on `NC(=O)c1ncc(NC2(C(N)=O)CCC2)nc1Nc1ccc2ncccc2c1` [Example 34, 5-(1-carbamoylcyclobutylamino)-3-(quinolin-6-ylamino)pyrazine-2-carboxamide] yielded an IC50 of 0.001 to 0.01 µM.

Work on `NC(=O)c1ncc(N[C@@H]2CCCC[C@@H]2N)nc1Nc1ccc(F)nc1` [Example 304, 5-((1R,2S)-2-aminocyclohexylamino)-3-(6-fluoropyridin-3-ylamino)pyrazine-2-carboxamide] yielded an IC50 of 0.01 to 0.1 µM.

`Cc1cccc(Nc2nc(N[C@@H]3CCCC(F)(F)[C@@H]3N)cnc2C(N)=O)c1` [Example 103, 5-((1R,2R)-2-amino-3,3-difluorocyclohexylamino)-3-(m-tolylamino)pyrazine-2-carboxamide] showed an IC50 of 0.01 to 0.1 µM.

Molecule `NC(=O)c1ncc(N[C@@H]2CCCC[C@@H]2N)nc1Nc1ccnc2ncccc12` [Example 437, 3-((1,8-naphthyridin-4-yl)amino)-5-(((1R,2S)-2-aminocyclohexyl)amino)pyrazine-2-carboxamide] has an IC50 of 0.001 to 0.01 µM.

Work on `NC(=O)c1ncc(N[C@@H]2CCCC(F)(F)[C@@H]2N)nc1Nc1ccc2c(c1)COCC2` [Example 451, 5-(((1R,2R)-2-amino-3,3-difluorocyclohexyl)amino)-3-(isochroman-7-ylamino)pyrazine-2-carboxamide] yielded an IC50 of 0.001 to 0.01 µM.

Molecule `NC(=O)c1ncc(N[C@@H]2CCCC[C@@H]2N)nc1Nc1ccc(-n2ccccc2=O)cc1` [Example 440, 5-(((1R,2S)-2-aminocyclohexyl)amino)-3-((4-(2-oxopyridin-1(2H)-yl)phenyl)amino)pyrazine-2-carboxamide] has an IC50 of 0.01 to 0.1 µM.

Molecule `NC(=O)c1ncc(N[C@@H](C(N)=O)C2CC2)nc1Nc1cnc2ccccc2c1` [Example 68, (R)-5-(2-amino-1-cyclopropyl-2-oxoethylamino)-3-(quinolin-3-ylamino)pyrazine-2-carboxamide] has an IC50 of 0.001 to 0.01 µM.

Molecule `Cc1cc(Nc2nc(N[C@H](CC(C)(C)C)C(N)=O)cnc2C(N)=O)sn1` [Example 266, (R)-5-(1-amino-4,4-dimethyl-1-oxopentan-2-ylamino)-3-(3-methylisothiazol-5-ylamino)pyrazine-2-carboxamide] has an IC50 of 0.01 to 0.1 µM.

`CC[C@@H](Nc1cnc(C(N)=O)c(Nc2snc3ccsc23)n1)C(N)=O` [Example 268, (R)-5-(1-amino-1-oxobutan-2-ylamino)-3-(thieno[3,2-c]isothiazol-3-ylamino)pyrazine-2-carboxamide] gave an IC50 of 0.001 to 0.01 µM.

`CC[C@@H](Nc1cnc(C(N)=O)c(Nc2cc(C)cc(C)c2)n1)C(N)=O` [Example 77, (R)-5-(1-amino-1-oxobutan-2-ylamino)-3-(3,5-dimethylphenylamino)pyrazine-2-carboxamide] showed an IC50 of 0.001 to 0.01 µM.

`CC[C@@H](Nc1cnc(C(N)=O)c(Nc2ccc(C3CC3)nc2)n1)C(N)=O` [Example 341, (R)-5-(1-amino-1-oxobutan-2-ylamino)-3-(6-cyclopropylpyridin-3-ylamino)pyrazine-2-carboxamide] gave an IC50 of 0.01 to 0.1 µM.

`CC[C@@H](Nc1cnc(C(N)=O)c(Nc2ccc3cnccc3c2)n1)C(N)=O` [Example 368, (R)-5-(1-amino-1-oxobutan-2-ylamino)-3-(isoquinolin-6-ylamino)pyrazine-2-carboxamide] gave an IC50 of 0.001 to 0.01 µM.

Molecule `NC(=O)c1ccc(Nc2nc(N[C@@H]3CCCC[C@@H]3N)cnc2C(N)=O)cc1` [Example 13, 5-((1R,2S)-2-aminocyclohexylamino)-3-(4-carbamoylphenylamino)pyrazine-2-carboxamide] has an IC50 of 0.001 to 0.01 µM.

`NC(=O)c1ncc(N[C@@H]2CCCC[C@@H]2N)nc1Nc1ccnnc1` [Example 213, 5-((1R,2S)-2-aminocyclohexylamino)-3-(pyridazin-4-ylamino)pyrazine-2-carboxamide] was tested, and the IC50 was 0.01 to 0.1 µM.

`CC(C)(C)C[C@@H](Nc1cnc(C(N)=O)c(Nc2cnc3cccnc3c2)n1)C(N)=O` [Example 246, (R)-3-(1,5-naphthyridin-3-ylamino)-5-(1-amino-4,4-dimethyl-1-oxopentan-2-ylamino)pyrazine-2-carboxamide] showed an IC50 of 0.001 to 0.01 µM.

With `CN1C(=O)COc2ccc(Nc3nc(N[C@@H]4CCCC[C@@H]4N)cnc3C(N)=O)cc21` [Example 207, 5-((1R,2S)-2-aminocyclohexylamino)-3-(4-methyl-3-oxo-3,4-dihydro-2H-benzo[b][1,4]oxazin-6-ylamino)pyrazine-2-carboxamide] the IC50 was 0.001 to 0.01 µM.
